From patent US20140336067A1, “METHOD FOR FINDING BIOACTIVE PEPTIDES” (Nano Intelligent Biomedical Engineering Corporation Co. Ltd., priority 2011, published 2014)

Key:
[1] = system: hMSCs (human mesenchymal stem cells); assay: In vitro cell differentiation potential by calcium production (Alizarin red S staining); format: cell-based; conditions: hMSCs treated with 10 mM peptide, hard tissue forming medium, FIG. 6
Description: To measure the cell differentiation ability of the heparin binding peptide by calcium production, 1×10^3 hMSCs (human mesenchymal stem cells) were dispensed into each well of a well-plate, and then treated with 10 mM of each of the peptides of SEQ ID NOS: 2 and 3 synthesized in Example 2. Then, the cells were cultured in a hard tissue forming medium (MSCBM medium containing 15% FBS (fetal bovine serum), […] L-ascorbic acid, 10^−7 M dexamethasone, 1% antibiotic-antimycotic solution, and 10 mM beta-glycerol phosphate) for […]. After completion of the culture, the medium was removed, and the cells were washed twice with phosphate buffered saline (PBS). Then, the cells were fixed with 90% ethanol at 4° C. for 15 minutes and washed twice with distilled water, followed by staining with 2% Alizarin red S solution (pH 4.2; Alizarin red S powder, Junsei, JAPAN) for 5 minutes.

[2] = Binding of synthesized peptide to heparin (solid phase method, HRP-conjugated heparin binding protein, absorbance at 405 nm); conditions: peptide coated on 96-well plates, sodium heparin 10 μg/100 μL, FIG. 5
Description: The synthesized peptide was dissolved in PBS at various concentrations and coated on the surface of 96-well Maxisorp microtiter plates (Nunc). Then, it was blocked with 1% BSA at 37° C. for 1 hour, and sodium heparin (10 μg/100 μL) was added to the peptide and reacted with the peptide at room temperature for 4 hours. The plate was washed three times with PBS, and then horseradish peroxidase (HRP)-conjugated heparin binding protein (Lifespan Technologies, Salt Lake City, Utah) diluted in PBS at a concentration of 1 μg/mL was reacted with the peptide at room temperature for 1 hour. To measure the binding of HRP-conjugated heparin binding protein to the peptide, ABTS was added to each well to develop color, and after 5 minutes, 1% SDS was added to each well to stop the reaction. Then, the absorbance of each well at 405 nm was measured. The absorbance of the peptide having the HRP-conjugated heparin binding protein bound thereto was calculated relative to 100% for the well surface coated with 1% BSA.
Binding %=(absorbance of well coated with heparin binding peptide/absorbance of well coated with BSA)×100

Row | Sequence | production of calcium [1] | ability to bind to heparin [2]
1 | SLYVDFSDVGW (the sequence is synthesized) [SEQ ID NO: 3, BMP-4 peptide selected from chymotrypsin cleavage sites] | lowest | 
2 | SQRARKKNKNCRRH (the sequence is synthesized) [SEQ ID NO: 2] | highest | high ability to bind to heparin
